According to patent US8003124B2, “Sustained release implants and methods for subretinal delivery of bioactive agents to treat or prevent retinal disease” (Surmodics, Inc., priority 2005, dated 2011):

What was measured:
rabbit eye = settings: in vivo
Procedure: Pupils were fully dilated before implantation with 1 drop each of cyclopentolate hydrochloride 1% (Bausch & Lomb, Rochester, N.Y.) and phenylephrine hydrochloride 5% (Bausch & Lomb). […] A periocular surgical prep was performed by swabbing the area using a 1:10 dilution of povidone iodine in saline. The surface of the eye was prepped with a 1:20 dilution of povidone iodine in saline. The rabbit was positioned under the operating microscope and draped. A wire lid speculum was placed.
A two-port core vitrectomy was performed, with illumination provided by the operating microscope (Carl Zeiss Ophthalmic Systems, Inc.). […] The feathered shape and semi-rigid structure of the implant allowed easy insertion. […] At the conclusion of surgery, a subconjunctival injection of antibiotic, 0.1 cc of 40 mg/ml gentamycin (Phoenix Scientific, St. Joseph, Mo.) and 0.1 cc of 2 mg/ml dexamethasone (Phoenix Scientific) was administered away from the surgery site. […]
Complete ophthalmic examinations using indirect ophthalmoscopy and a 20-diopter lens (Vantage Indirect Ophthalmoscope, Keeler Ltd., Windsor, England) were performed at baseline and 1, 2, and 4 weeks postoperatively. […] The lens was inspected for cataract formation and further evaluated with respect to any lens touch that may have occurred during the implantation.

[1] = In vivo elution: TA by HPLC in eye tissues, aqueous and blood after subretinal PCL/TA 60:40 implant; settings: four weeks after subretinal PCL/TA 60:40 implant, rabbit
[2] = three days following an injection; cited from earlier work

SMILES: CO[C@H]1C[C@@H]2CC[C@@H](C)[C@@](O)(O2)C(=O)C(=O)N2CCCC[C@H]2C(=O)O[C@H]([C@H](C)C[C@@H]2CC[C@@H](O)[C@H](OC)C2)CC(=O)[C@H](C)/C=C(\C)[C@@H](O)[C@@H](OC)C(=O)[C@H](C)C[C@H](C)/C=C/C=C/C=C/1C [rapamycin]
- biocompatibility / toxicity, clinical examinations (rabbit eye): may be toxic to the rabbit eye at the current doses

SMILES: CC1(C)O[C@@H]2C[C@H]3[C@@H]4CCC5=CC(=O)C=C[C@]5(C)[C@@]4(F)[C@@H](O)C[C@]3(C)[C@]2(C(=O)CO)O1 [TA, Triamcinolone acetonide]
- TA in the anterior structures (HPLC) [1]: not detected
- TA in the blood (HPLC) [1]: not detected
- TA in the posterior tissue samples (HPLC) ([1]; qualitative, FIG. 9): confirmed the presence

SMILES: C[C@]12C=CC(=O)C=C1CC[C@H]1[C@@H]3C[C@@H](O)[C@](O)(C(=O)CO)[C@@]3(C)C[C@H](O)[C@@]12F [triamcinolone]
- share of the triamcinolone present in the vitreous associated with other tissues including the retina, pigment epithelium, and sclera [2]: less than 1%
